Results from the supplement of paper PMC10307832.

Assays:
Experiment in all cases: relative viability (nuclei count vs DMSO), 5 days (fraction); higher = more cells survive
NCI-H727 = tested on: NCI-H727
How it was run: (§1)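 Relative viability divides the nuclei count in treated wells by that in vehicle wells. Lung cancer cell lines were seeded in 1536-well plates, dosed by pin tool the next day, and fixed and stained after 5 days in one step with final 0.05% Triton X-100, 1% formaldehyde and 1 ug/ml Hoechst. Dosing was a single drug or a fixed anchor-drug dose plus five library-drug doses (not always all listed) in √10 steps, and values are medians of duplicate plates imaged at 4×.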

HOP-62 = tested on: HOP-62
How it was run: as §1

NCI-H322M = tested on: NCI-H322M
How it was run: as §1

EPLC-272H = tested on: EPLC-272H
How it was run: as §1

NCI-H1993 = tested on: NCI-H1993
How it was run: as §1

LXF-289 = tested on: LXF-289
How it was run: as §1

H3255 = tested on: H3255
How it was run: as §1

NCI-H1563 = tested on: NCI-H1563
How it was run: as §1

NCI-H2347 = tested on: NCI-H2347
How it was run: as §1

NCI-H2023 = tested on: NCI-H2023
How it was run: as §1

PC-14 = tested on: PC-14
How it was run: as §1

NCI-H1915 = tested on: NCI-H1915
How it was run: as §1

NCI-H2009 = tested on: NCI-H2009
How it was run: as §1

NCI-H2085 = tested on: NCI-H2085
How it was run: as §1

NCI-H2126 = tested on: NCI-H2126
How it was run: as §1

SK-LU-1 = tested on: SK-LU-1
How it was run: as §1

LCLC-97TM1 = tested on: LCLC-97TM1
How it was run: as §1

NCI-H661 = tested on: NCI-H661
How it was run: as §1

NCI-H1650 = tested on: NCI-H1650
How it was run: as §1

EMC-BAC-2 = tested on: EMC-BAC-2
How it was run: as §1

SW 1573 = tested on: SW 1573
How it was run: as §1

NCI-H647 = tested on: NCI-H647
How it was run: as §1

NC(=O)Nc1cc(-c2cccc(F)c2)sc1C(=O)N[C@H]1CCCNC1 [AZD7762] + CC(C)C[C@H](NC(=O)[C@H](Cc1ccccc1)NC(=O)c1cnccn1)B(O)O [Bortezomib] (partner 0.002 µM)
relative viability (NCI-H727; first compound 0.01 µM): 1.04
relative viability (NCI-H727; first compound 0.03162 µM): 0.878
relative viability (NCI-H727; first compound 0.1 µM): 0.556
relative viability (NCI-H727; first compound 0.3162 µM): 0.446
relative viability (NCI-H727; first compound 1 µM): 0.298
relative viability (HOP-62; first compound 0.01 µM): 0.817
relative viability (HOP-62; first compound 0.03162 µM): 0.605
relative viability (HOP-62; first compound 0.1 µM): 0.491
relative viability (HOP-62; first compound 0.3162 µM): 0.725
relative viability (HOP-62; first compound 1 µM): 0.43
relative viability (NCI-H322M; first compound 0.01 µM): 1.09
relative viability (NCI-H322M; first compound 0.03162 µM): 1.26
relative viability (NCI-H322M; first compound 0.1 µM): 1.36
relative viability (NCI-H322M; first compound 0.3162 µM): 1.39
relative viability (NCI-H322M; first compound 1 µM): 1.33
relative viability (EPLC-272H; first compound 0.01 µM): 0.81
relative viability (EPLC-272H; first compound 0.03162 µM): 1.01
relative viability (EPLC-272H; first compound 0.1 µM): 1.02
relative viability (EPLC-272H; first compound 0.3162 µM): 0.828
relative viability (EPLC-272H; first compound 1 µM): 0.992
relative viability (NCI-H1993; first compound 0.01 µM): 1.2
relative viability (NCI-H1993; first compound 0.03162 µM): 1.08
relative viability (NCI-H1993; first compound 0.1 µM): 1.07
relative viability (NCI-H1993; first compound 0.3162 µM): 1.36
relative viability (NCI-H1993; first compound 1 µM): 0.841
relative viability (LXF-289; first compound 0.01 µM): 0.918
relative viability (LXF-289; first compound 0.03162 µM): 0.947
relative viability (LXF-289; first compound 0.1 µM): 1.07
relative viability (LXF-289; first compound 0.3162 µM): 1
relative viability (LXF-289; first compound 1 µM): 1.12
relative viability (H3255; first compound 0.01 µM): 0.818
relative viability (H3255; first compound 0.03162 µM): 0.852
relative viability (H3255; first compound 0.1 µM): 0.734
relative viability (H3255; first compound 0.3162 µM): 0.609
relative viability (H3255; first compound 1 µM): 0.59
relative viability (NCI-H1563; first compound 0.01 µM): 0.843
relative viability (NCI-H1563; first compound 0.03162 µM): 0.963
relative viability (NCI-H1563; first compound 0.1 µM): 1.05
relative viability (NCI-H1563; first compound 0.3162 µM): 0.976
relative viability (NCI-H1563; first compound 1 µM): 0.746
relative viability (NCI-H2347; first compound 0.01 µM): 1.1
relative viability (NCI-H2347; first compound 0.03162 µM): 0.967
relative viability (NCI-H2347; first compound 0.1 µM): 0.863
relative viability (NCI-H2347; first compound 0.3162 µM): 1.17
relative viability (NCI-H2347; first compound 1 µM): 0.685
relative viability (NCI-H2023; first compound 0.01 µM): 0.82
relative viability (NCI-H2023; first compound 0.03162 µM): 0.904
relative viability (NCI-H2023; first compound 0.1 µM): 0.465
relative viability (NCI-H2023; first compound 0.3162 µM): 0.283
relative viability (NCI-H2023; first compound 1 µM): 0.104
relative viability (PC-14; first compound 0.01 µM): 0.848
relative viability (PC-14; first compound 0.03162 µM): 0.925
relative viability (PC-14; first compound 0.1 µM): 0.932
relative viability (PC-14; first compound 0.3162 µM): 0.662
relative viability (PC-14; first compound 1 µM): 0.357
relative viability (NCI-H1915; first compound 0.01 µM): 0.989
relative viability (NCI-H1915; first compound 0.03162 µM): 0.99
relative viability (NCI-H1915; first compound 0.1 µM): 1.03
relative viability (NCI-H1915; first compound 0.3162 µM): 1.02
relative viability (NCI-H1915; first compound 1 µM): 0.959
relative viability (NCI-H2009; first compound 0.01 µM): 0.904
relative viability (NCI-H2009; first compound 0.03162 µM): 1.13
relative viability (NCI-H2009; first compound 0.1 µM): 1.08
relative viability (NCI-H2009; first compound 0.3162 µM): 0.839
relative viability (NCI-H2009; first compound 1 µM): 0.794
relative viability (NCI-H2085; first compound 0.01 µM): 1.11
relative viability (NCI-H2085; first compound 0.03162 µM): 1.14
relative viability (NCI-H2085; first compound 0.1 µM): 1.11
relative viability (NCI-H2085; first compound 0.3162 µM): 1.14
relative viability (NCI-H2085; first compound 1 µM): 0.887
relative viability (NCI-H2126; first compound 0.01 µM): 1.06
relative viability (NCI-H2126; first compound 0.03162 µM): 1.11
relative viability (NCI-H2126; first compound 0.1 µM): 1.18
relative viability (NCI-H2126; first compound 0.3162 µM): 1.2
relative viability (NCI-H2126; first compound 1 µM): 1.07
relative viability (SK-LU-1; first compound 0.01 µM): 1.34
relative viability (SK-LU-1; first compound 0.03162 µM): 1.05
relative viability (SK-LU-1; first compound 0.1 µM): 0.853
relative viability (SK-LU-1; first compound 0.3162 µM): 0.36
relative viability (SK-LU-1; first compound 1 µM): 0.269
relative viability (LCLC-97TM1; first compound 0.01 µM): 0.767
relative viability (LCLC-97TM1; first compound 0.03162 µM): 0.822
relative viability (LCLC-97TM1; first compound 0.1 µM): 0.737
relative viability (LCLC-97TM1; first compound 0.3162 µM): 0.335
relative viability (LCLC-97TM1; first compound 1 µM): 0.634
relative viability (NCI-H661; first compound 0.01 µM): 0.828
relative viability (NCI-H661; first compound 0.03162 µM): 0.938
relative viability (NCI-H661; first compound 0.1 µM): 0.766
relative viability (NCI-H661; first compound 0.3162 µM): 0.681
relative viability (NCI-H661; first compound 1 µM): 0.382
relative viability (NCI-H1650; first compound 0.01 µM): 0.217
relative viability (NCI-H1650; first compound 0.03162 µM): 0.205
relative viability (NCI-H1650; first compound 0.1 µM): 0.211
relative viability (NCI-H1650; first compound 0.3162 µM): 0.203
relative viability (NCI-H1650; first compound 1 µM): 0.204
relative viability (EMC-BAC-2; first compound 0.01 µM): 1.12
relative viability (EMC-BAC-2; first compound 0.03162 µM): 1.08
relative viability (EMC-BAC-2; first compound 0.1 µM): 1.09
relative viability (EMC-BAC-2; first compound 0.3162 µM): 1.15
relative viability (EMC-BAC-2; first compound 1 µM): 1.12
relative viability (SW 1573; first compound 0.01 µM): 1.12
relative viability (SW 1573; first compound 0.03162 µM): 1.4
relative viability (SW 1573; first compound 0.1 µM): 1.21
relative viability (SW 1573; first compound 0.3162 µM): 1.22
relative viability (SW 1573; first compound 1 µM): 0.771
relative viability (NCI-H647; first compound 0.01 µM): 1.15
relative viability (NCI-H647; first compound 0.03162 µM): 1.08
relative viability (NCI-H647; first compound 0.1 µM): 0.919
relative viability (NCI-H647; first compound 0.3162 µM): 0.634
relative viability (NCI-H647; first compound 1 µM): 0.0894
